Here are results for 10 molecules from patent US11529341B2, “Bicyclic compounds as inhibitors of PD1/PD-L1 interaction/activation” (JUBILANT PRODEL LLC, priority 2018, dated 2022).

In this experiment the target is T1, PD-1/PD-L1 interaction (Homo sapiens, UniProt Q9NZQ7).
T1 construct: Tag1 (undisclosed kit tag); purchased CisBio 63ADK000CPAPEG
T1 sequence (Q9NZQ7 19-238 limits assumed): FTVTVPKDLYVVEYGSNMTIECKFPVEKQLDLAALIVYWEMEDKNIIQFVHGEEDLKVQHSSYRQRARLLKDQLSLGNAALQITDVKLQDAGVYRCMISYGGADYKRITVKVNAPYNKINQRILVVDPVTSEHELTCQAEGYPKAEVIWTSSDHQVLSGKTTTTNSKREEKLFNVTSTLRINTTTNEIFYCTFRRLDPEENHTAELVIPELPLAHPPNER
Description: PD-1/PD-L1 Homogenous Time-Resolved Fluorescence (HTRF) binding assay (CisBio kit). The settings on record: Biochemical PD1/PD-L1 inhibition. In short, it runs like this:
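Tagged PD-L1 and PD-1 proteins preincubated with compound 15 min, then anti-Tag1-Eu3+ donor and anti-Tag2-XL665 acceptor added, 1 h at room temperature. Emission read at 665 and 620 nm; signal expressed as HTRF ratio (665/620)×10^4, loss of signal indicating blocked binding.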
(Time-resolved FRET reads energy transfer from a long-lived donor to a nearby acceptor.)
One may read the IC50 as the midpoint of a concentration-inhibition curve. Low values mean greater potency, high ones weaker potency. In the case of `COC(=O)C12CCC(NCc3c(OCc4cccc(C#N)c4)cc(OCc4cccc(-c5ccccc5)c4C)c4c3CCC4)(CC1)CC2` [Compound 73, methyl 4-(((5-((3-cyanobenzyl)oxy)-7-((2-methyl-[1,1′-biphenyl]-3-yl)methoxy)-2,3-dihydro-1H-inden-4-yl)methyl)amino)bicyclo[2.2.2]octane-1-carboxylate], the half-maximal inhibitory concentration (IC50) fell in the range of 100 to 500 nM.
The value for `Cc1c(COc2cc(OCc3cccc(C#N)c3)c(CNC34CCC(C(=O)O)(CC3)CC4)c3c2CCC3)cccc1-c1ccccc1` [Compound 74, 4-(((5-((3-cyanobenzyl)oxy)-7-((2-methyl-[1,1′-biphenyl]-3-yl)methoxy)-2,3-dihydro-1H-inden-4-yl)methyl)amino)bicyclo[2.2.2]octane-1-carboxylic acid] was under 100 nM; that for `COc1cc(OCc2cccc(-c3ccccc3)c2C(F)(F)F)c2c(c1CN1CCCC[C@H]1C(=O)O)CCC2` [Compound 75, (S)-1-((5-methoxy-7-((2-(trifluoromethyl)-[1,1′-biphenyl]-3-yl)methoxy)-2,3-dihydro-1H-inden-4-yl)methyl)piperidine-2-carboxylic acid] was over 500 nM.
The value for `COc1cc(OCc2cccc(-c3ccccc3)c2C(F)(F)F)c2c(c1CN1C[C@H](O)C[C@H]1C(=O)O)CCC2` [Compound 76, (2S,4R)-4-hydroxy-1-((5-methoxy-7-((2-(trifluoromethyl)-[1,1′-biphenyl]-3-yl)methoxy)-2,3-dihydro-1H-inden-4-yl)methyl)pyrrolidine-2-carboxylic acid] was over 500 nM; that for `Cc1c(COc2cc(OCC3CCCN(C)C3)c(CN3CCCC[C@H]3C(=O)O)c3c2CCC3)cccc1-c1ccccc1` (stereo partly drawn) [Compound 77, (2S)-1-((7-((2-methyl-[1,1′-biphenyl]-3-yl)methoxy)-5-((1-methylpiperidin-3-yl)methoxy)-2,3-dihydro-1H-inden-4-yl)methyl)piperidine-2-carboxylic acid] was under 100 nM; that for `N#Cc1c(COc2cc(OCCCCC(=O)O)c(CN3CCCC[C@H]3C(=O)O)c3c2CCC3)cccc1-c1ccccc1` [Compound 78, (S)-1-((5-(4-carboxybutoxy)-7-((2-cyano-[1,1′-biphenyl]-3-yl)methoxy)-2,3-dihydro-1H-inden-4-yl)methyl)piperidine-2-carboxylic acid] was under 100 nM.
The value for `CC(=O)NCCNCc1c(OCCCCC#N)cc(OCc2cccc(-c3ccccc3)c2C)c2c1CCC2` [Compound 79, N-(2-(((5-(4-cyanobutoxy)-7-((2-methyl-[1,1′-biphenyl]-3-yl)methoxy)-2,3-dihydro-1H-inden-4-yl)methyl)amino)ethyl)acetamide] was under 100 nM.
`Cc1c(COc2cc(OCCCCC#N)c(CN3CCCC[C@H]3C(N)=O)c3c2CCC3)cccc1-c1ccccc1` [Compound 80, (S)-1-((5-(4-cyanobutoxy)-7-((2-methyl-[1,1′-biphenyl]-3-yl)methoxy)-2,3-dihydro-1H-inden-4-yl)methyl)piperidine-2-carboxamide]: the IC50 was over 500 nM.
Then `Cc1c(COc2cc(OCCCCC#N)c(CN3C[C@H](O)C[C@H]3C(=O)O)c3c2CCC3)cccc1-c1ccccc1` [Compound 81, (2S,4R)-1-((5-(4-cyanobutoxy)-7-((2-methyl-[1,1′-biphenyl]-3-yl)methoxy)-2,3-dihydro-1H-inden-4-yl)methyl)-4-hydroxypyrrolidine-2-carboxylic acid], with under 100 nM.
Turning to `Cc1c(COc2cc(OC[C@H]3C[C@H]3C(=O)O)c(CN3CCCC[C@H]3C(=O)O)c3c2CCC3)cccc1-c1ccccc1` [Compound 82, (S)-1-((5-(((1S,2R)-2-carboxycyclopropyl)methoxy)-7-((2-methyl-[1,1′-biphenyl]-3-yl)methoxy)-2,3-dihydro-1H-inden-4-yl)methyl)piperidine-2-carboxylic acid], the IC50 was 100 to 500 nM.
